Test results published in US4237135A, “2-(4-Ethyl-1-piperazinyl)-4-phenylquinoline, process for preparation thereof, and composition thereof” (Dainippon Pharmaceutical Co., Ltd., priority 1978, dated 1980).
Read-outs that look alike come from different tables or passages of the source.

Assays:
[1] = tested on: hypothermia induced by reserpine; assay: Anti-reserpine activity: antagonistic effect on hypothermia induced by reserpine; assay type: in vivo, male STD-ddY strain mice; details: p.o.; for ED50: Mus musculus, po, 4 h, reserpine 5 mg/kg i.p.
Experimental: Pharmacological experiments have been done on the compound of the present invention, some known and novel analogous compounds and an antidepressant on the market, as mentioned below. In the experiments, ED50 was calculated by Litchfield-Wilcoxon method. This effect was examined according to the method of […]. 2, 725 (1963)], using male STD-ddY strain mice weighing 20-25 g. […] Rectal temperature of each mouse was measured 4 hours later with a thermister (Shibaura Electric, BMG III-130).

[2] = tested on: spontaneous locomotor activity; assay: Inhibitory effect on spontaneous locomotor activity; assay type: in vivo, male STD-ddY strain mice; details: for ED50: Mus musculus, po, read-out: Spontan. locomotor ED50; for Inhibition of spontaneous locomotion (in words): p.o.
Experimental: (§1) Pharmacological experiments have been done on the compound of the present invention, some known and novel analogous compounds and an antidepressant on the market, as mentioned below. In the experiments, ED50 was calculated by Litchfield-Wilcoxon method.
Male mice of STD-ddY strain, weighing 20-25 g, were used in groups of 5 mice each. Each test compound was given orally to the mice in 5 different doses, and 2 hours later the spontaneous locomotor activity of each mouse was measured for 3 minutes by means of an Animex locomotor activity meter (made by Farad Electronics). ED50 was calculated for each compound. The ED50 means the dose of test compound in which the locomotor activity was reduced to 50% of that of control group receiving saline.

antidepressant activity = assay: Antidepressant activity, overall (Test 1); assay type: in vivo, male STD-ddY strain mice; male Wistar strain rats; details: for Antidepressant activity (in words): overall conclusion
Experimental: This effect was examined according to the method of […]. 2, 725 (1963)], using male STD-ddY strain mice weighing 20-25 g. […] Rectal temperature of each mouse was measured 4 hours later with a thermister (Shibaura Electric, BMG III-130). […] Male STD-ddY strain mice, weighing […], were used in groups of 10 mice each. […] The mice were tested for catalepsy 1 hour after the administration of test compounds. ED50 was calculated for each compound. […] Male STD-ddY strain mice, weighing 20-25 g, were used in groups of 10 mice each. […] Two hours after the tetrabenazine injection, the degree of eyelid closure (ptosis) was assessed on the basis of macroscopic scoring (0: no closure of the eyelid, 1: 1/4 closure, 2: 2/4 closure, 3: 3/4 closure and 4: complete closure), essentially according to the method of P. A. J. Janssen [Arzneim. Forsch. 15, 104 (1965)]. ED50 was calcuated for each compound. […] Male Wistar strain rats, weighing 240-260 g, which had developed mouse-killing behavior after ablation of the olfactory bulb according to the method of Z. P. Horovitz [Int. J. Neuropharmacol. 5, 405 (1966)], were used in groups of 15 animals each. […] ED50 was calculated for each compound.

[3] = tested on: catalepsy induced by reserpine; assay: Anti-reserpine activity: antagonistic effect on catalepsy induced by reserpine; assay type: in vivo, male STD-ddY strain mice; details: for ED50: Mus musculus, po, 1 h
Experimental: In the experiments, ED50 was calculated by Litchfield-Wilcoxon method. Male STD-ddY strain mice, weighing […], were used in groups of 10 mice each. […] The mice were tested for catalepsy 1 hour after the administration of test compounds. ED50 was calculated for each compound.

[4] = tested on: spontaneous and methamphetamine-induced locomotor activities; assay: Neuroleptics-like activity, overall (Test 2); assay type: in vivo, male STD-ddY strain mice; details: overall conclusion
[5] = tested on: ptosis induced by tetrabenazine; assay: Anti-tetrabenazine activity: antagonistic effect on ptosis induced by tetrabenazine; assay type: in vivo, male STD-ddY strain mice; details: Mus musculus, po; tetrabenazine 70 mg/kg i.p.; Table 2
Experimental: Pharmacological experiments have been done on the compound of the present invention, some known and novel analogous compounds and an antidepressant on the market, as mentioned below. In the experiments, ED50 was calculated by Litchfield-Wilcoxon method. Male STD-ddY strain mice, weighing 20-25 g, were used in groups of 10 mice each. […] Two hours after the tetrabenazine injection, the degree of eyelid closure (ptosis) was assessed on the basis of macroscopic scoring (0: no closure of the eyelid, 1: 1/4 closure, 2: 2/4 closure, 3: 3/4 closure and 4: complete closure), essentially according to the method of P. A. J. Janssen [Arzneim. Forsch. 15, 104 (1965)]. ED50 was calcuated for each compound.

[6] = tested on: methamphetamine-induced locomotor activity; assay: Anti-methamphetamine effect (inhibitory effect on methamphetamine-induced locomotor activity); assay type: in vivo, male STD-ddY strain mice; details: for ED50: Mus musculus, ip, read-out: Anti-methamphetamine ED50; for Antagonizing methamphetamine-induced locomotor activity (in words): i.p.
Experimental: as §1
Male STD-ddY strain mice, weighing 20-25 g, were used in groups of 10 mice each. Groups of mice were injected intraperitoneally with 4 mg/kg of methamphetamine, and 30 minutes later each test compound was injected intraperitoneally in 3 different doses. One hour after the injection of methamphetamine, locomotor activity of each mouse was measured for 10 minutes with an Animex locomotor activity meter.

[7] = tested on: mouse-killing behavior of olfactory bulb-ablated rats; assay: Suppressing effect on mouse-killing behavior in olfactory bulb-ablated rats; assay type: in vivo, male Wistar strain rats; details: Rattus norvegicus, ip, 1 h, read-out: Suppressing effect on mouse-killing behavior of olfactory bulb-ablated rats, ED50
Experimental: as §1
Male Wistar strain rats, weighing 240-260 g, which had developed mouse-killing behavior after ablation of the olfactory bulb according to the method of Z. P. Horovitz [Int. J. Neuropharmacol. 5, 405 (1966)], were used in groups of 15 animals each. Each test compound was given intraperitoneally to the rats in 6 different doses, and 1 hours later the rats were each tested as to whether they killed a mouse or not. ED50 was calculated for each compound.

[8] = tested on: brain 3-methoxy-4-hydroxyphenylethylene glycol sulfate (MOPEG-SO4); assay: Effect on brain monoamine metabolites: MOPEG-SO4; assay type: in vivo, male Wistar strain rats; details: 100 mg/kg p.o.; for Brain MOPEG-SO4, % of control: *P<0.01
Experimental: (§2) Each test compound was given orally to the rats in a dose of 100 mg/kg and, 1, 3 and 6 hours later the rats were sacrificed. […] The concentrations of the monoamine metabolites were calculated in terms of ng/g wet brain tissue and expressed as % of the concentrations of controls receiving saline.

[9] = tested on: brain 5-hydroxyindoleacetic acid (5-HIAA); assay: Effect on brain monoamine metabolites: 5-HIAA; assay type: in vivo, male Wistar strain rats; details: 100 mg/kg p.o., *P<0.01
Experimental: as §2

[10] = tested on: brain homovanillic acid (HVA); assay: Effect on brain monoamine metabolites: HVA; assay type: in vivo, male Wistar strain rats; details: 100 mg/kg p.o.; for Brain HVA, % of control: *P<0.01
Experimental: as §2

tremorine-induced tremor = assay: Anti-tremorine activity (antagonistic effect on tremorine-induced tremor); assay type: in vivo, male STD-ddY strain mice; details: Mus musculus, po, read-out: Anti-tremorine activity ED50
Experimental: as §1
Male STD-ddY strain mice, weighing 20-25 g, were used in groups of 5 mice each. Each test compound was given orally to the mice in 5 different doses, and 2 hours later 20 mg/kg of tremorine was injected intraperitoneally. Half an hour after the injection of tremorine, each mouse was examined macroscopically for tremor severity, according to the rating scale with the scores 0, 1, 2, and 3 depending on the severity. ED50 was calculated for each compound. The ED50 means the dose of test compound in which the tremorine-induced tremor was inhibited by 50% in severity.

[11] = Table 2, read-out: Anti-reserpine ED50, hypothermia
[12] = p.o., reserpine 5 mg/kg i.p., Table 2, read-out: Anti-reserpine ED50, catalepsy
[13] = Table 1, read-out: Anti-reserpine activity ED50, hypothermia
[14] = p.o., reserpine 5 mg/kg i.p., Table 1, read-out: Anti-reserpine activity ED50, catalepsy

## CN1CCN(c2cc(-c3ccccc3)c3ccccc3n2)CC1 [Compound 3, 2-(4-Methyl-1-piperazinyl)-4-phenylquinoline]
[1]; [11]
  ED50: 13.9 mg/kg
[2]; 2 hours after dosing
  ED50: 56.4 mg/kg
[2]
  Inhibition of spontaneous locomotion (in words): as potent as compound A
Antidepressant activity
  Antidepressant activity (in words): much less potent than the latter
[3]; [12]
  ED50: 4.7 mg/kg
[4]
  Neuroleptics-like activity (in words): comparable to compound A
[5]
  ED50: 10.4 mg/kg
[6]; methamphetamine 4 mg/kg i.p.
  ED50: 12.9 mg/kg
[6]
  Antagonizing methamphetamine-induced locomotor activity (in words): somewhat less potent

## CN(C)CCCN1c2ccccc2CCc2ccccc21 [Compound 6, 5-(3-dimethylaminopropyl)-10,11-dihydro-5H-dibenz[b,f]azepine]
[1]; [13]
  ED50: 21.5 mg/kg
[1]; [11]
  ED50: 21.5 mg/kg
[2]; 2 h
  ED50: > 200 mg/kg
[2]
  Inhibition of spontaneous locomotion (in words): devoid of both activities
[7]
  ED50: 5.5 mg/kg
[3]; read-out: Anti-reserpine ED50, catalepsy
  ED50: 38.3 mg/kg
[3]; read-out: Anti-reserpine activity ED50, catalepsy
  ED50: 38.3 mg/kg
[8]
  Brain MOPEG-SO4 concentration / noradrenaline turnover (in words): significant decrease in brain MOPEG-SO4 concentration
[8]; 1 hour
  Brain MOPEG-SO4, % of control: 87 % of control
[8]; 3 hours
  Brain MOPEG-SO4, % of control: 80 % of control
[8]; 6 hours
  Brain MOPEG-SO4, % of control: 70 % of control
[9]; 1 hour
  Brain 5-HIAA, % of control: 88 % of control
[9]; 3 hours
  Brain 5-HIAA, % of control: 84 % of control
[9]; 6 hours
  Brain 5-HIAA, % of control: 73 % of control
[4]
  Neuroleptics-like activity (in words): not seen
[10]
  Brain HVA concentration / dopamine turnover (in words): devoid of such activity
[10]; 1 hour
  Brain HVA, % of control: 110 % of control
[10]; 3 hours
  Brain HVA, % of control: 98 % of control
tremorine-induced tremor
  ED50: 48.3 mg/kg
[5]
  ED50: 4.9 mg/kg
[6]
  ED50: > 30 mg/kg
  Antagonizing methamphetamine-induced locomotor activity (in words): devoid of both activities

## OC(CCN1CCCCC1)(c1ccccc1)C1CC2C=CC1C2 (stereo not shown) [Compound 8, 5-norbornen-2-yl-phenyl-1-piperidinepropanol]
tremorine-induced tremor
  ED50: 11.4 mg/kg

## CN1CCN(c2cc(-c3ccccc3)c3cc(Cl)ccc3n2)CC1.Cl.Cl [Compound 1, 6-Chloro-2-(4-methyl-1-piperazinyl)-4-phenylquinoline dihydrochloride]
[1]; [13]
  ED50: 30.8 mg/kg
[1]; versus compound A
  Activity in antagonizing reserpine hypothermia relative to compound A: 5 times less active
[2]; 2 hours after dosing
  ED50: > 200 mg/kg
[2]
  Inhibition of spontaneous locomotion (in words): devoid of both activities
[3]; [14]
  ED50: 20 mg/kg
[3]; versus compound A, p.o.
  Activity in antagonizing reserpine catalepsy relative to compound A: 13 times less active
[4]
  Neuroleptics-like activity (in words): not seen
[6]; methamphetamine 4 mg/kg i.p.
  ED50: > 30 mg/kg
[6]
  Antagonizing methamphetamine-induced locomotor activity (in words): devoid of both activities

## CCCN1CCN(c2cc(-c3ccccc3)c3ccccc3n2)CC1.Cl.Cl [Compound 4, 2-(4-n-Propyl-1-piperazinyl)-4-phenylquinoline dihydrochloride]
[1]; [11]
  ED50: 13.6 mg/kg
[2]; 2 hours after dosing
  ED50: 62.2 mg/kg
[2]
  Inhibition of spontaneous locomotion (in words): as potent as compound A
Antidepressant activity
  Antidepressant activity (in words): inferior to compound A
[3]; [12]
  ED50: 4.4 mg/kg
[5]
  ED50: 8.2 mg/kg
[6]; methamphetamine 4 mg/kg i.p.
  ED50: 13.2 mg/kg
[6]
  Antagonizing methamphetamine-induced locomotor activity (in words): somewhat less potent

## CN(C)CCCN1c2ccccc2Sc2ccc(Cl)cc21 [Compound 7, 2chloro-10-(3-dimethylaminopropyl)phenothiazine]
[2]; 2 h
  ED50: 7.4 mg/kg
[6]
  ED50: 1 mg/kg

## CCCCN1CCN(c2cc(-c3ccccc3)c3ccccc3n2)CC1.O=C(O)/C=C\C(=O)O.O=C(O)/C=C\C(=O)O [Compound 5, 2-(4-n-Butyl-1-piperazinyl)-4-phenylquinoline dimaleate]
[1]; [11]
  ED50: 13.7 mg/kg
[2]; 2 hours after dosing
  ED50: 50.6 mg/kg
[2]
  Inhibition of spontaneous locomotion (in words): as potent as compound A
Antidepressant activity
  Antidepressant activity (in words): inferior to compound A
[3]; [12]
  ED50: 6.3 mg/kg
[5]
  ED50: 29.9 mg/kg
[6]; methamphetamine 4 mg/kg i.p.
  ED50: 16.4 mg/kg
[6]
  Antagonizing methamphetamine-induced locomotor activity (in words): somewhat less potent

## Clc1ccc2nc(N3CCN(c4ccccc4)CC3)cc(-c3ccccc3)c2c1 [Compound 2, 6Chloro-2-(4-phenyl-1-piperazinyl)-4-phenylquinoline]
[1]; [13]
  ED50: > 100 mg/kg
[2]; 2 hours after dosing
  ED50: > 200 mg/kg
[2]
  Inhibition of spontaneous locomotion (in words): devoid of both activities
Antidepressant activity; hypothermia and catalepsy, p.o.
  Anti-reserpine activity (in words): devoid of the anit-reserpine activity
[3]; [14]
  ED50: > 100 mg/kg
[4]
  Neuroleptics-like activity (in words): not seen
[6]; methamphetamine 4 mg/kg i.p.
  ED50: > 30 mg/kg
[6]
  Antagonizing methamphetamine-induced locomotor activity (in words): devoid of both activities
